Columns and labels:
[1] = target: T1, human CCR2 (Homo sapiens, UniProt P41597); assay: Functional Ca2+ release test (B-1); assay type: cell-based; conditions: Chem-1 cell line transfected with human CCR2, inhibition of MCP-1 effect, MCP-1 at EC50 (about 5 nM), Fluo-4
T1 construct: host or cells: Chem-1 cell line
T1 sequence (P41597 1-360 isoform P41597-2): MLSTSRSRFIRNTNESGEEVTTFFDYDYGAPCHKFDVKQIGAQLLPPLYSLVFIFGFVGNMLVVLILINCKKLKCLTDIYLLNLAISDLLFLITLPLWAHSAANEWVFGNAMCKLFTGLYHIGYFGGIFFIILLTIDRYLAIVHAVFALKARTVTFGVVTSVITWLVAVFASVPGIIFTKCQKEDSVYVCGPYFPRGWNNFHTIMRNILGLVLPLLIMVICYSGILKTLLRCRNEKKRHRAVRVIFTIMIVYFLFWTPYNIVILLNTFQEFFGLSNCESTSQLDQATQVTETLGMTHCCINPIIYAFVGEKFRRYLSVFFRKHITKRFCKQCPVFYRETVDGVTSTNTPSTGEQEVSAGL
Experimental: The antagonistic action of test substances on CCR2 was determined in a functional Ca^2+ release test. Binding of CCL2/MCP-1 to CCR2 leads to a change in the conformation of the receptor resulting in Gi/Gq protein activation and intracellular signal cascade. This involves, inter alia, an intracellular Ca^2+ release. The test cell used was a Chem-1 cell line transfected with human CCR2 (ChemiSCREEN™ CCR2B Calcium-Optimized FLIPR Cell Line, Merck Millipore).
(§1) The test substances were dissolved in dimethyl sulphoxide (DMSO) at a concentration of 10 mM and serially diluted with DMSO in steps of 1:3.16 for a 10-point dose/activity analysis. According to the desired test concentrations, the substances were pre-diluted in Tyrode with 2 mM CaCl2 and 0.05% BSA.
The cells, cultivated in DMEM high glucose [supplemented with 10% FCS, 1 mM pyruvate, 15 mM HEPES, 500 μg/ml geniticin and non-essential amino acids (NEAA)], were sown at 5000 cells/25 μl in 384 well, μCLEAR/black cell culture plates from Greiner (#781092) and incubated at 37° C. for 24 h. The sowing medium consisted of DMEM high glucose [supplemented with 5% FCS, 1 mM pyruvate, 15 mM HEPES, 50 U/ml penicillin, 50 μg/ml streptomycin and non-essential amino acids (NEAA)]. The medium was then removed and the cells were charged for 60 min at 37° C. with Fluo-4 dye [25 μl Tyrode with 3 μM Fluo-4 AM (1 mM DMSO stock solution), 0.4 mg/ml Brilliant Black, 2.5 mM probenicid, 0.03% Pluronic F-127]. The cells were pre-incubated for 10 min with 10 μl of the test substances diluted in buffer, and 20 μl of agonist solution (MCP-1 in Tyrode with 0.05% BSA) were then added. MCP-1 was employed at the concentration which corresponds to the EC50 which had been determined in a preliminary test (usually about 5 nM). Ca^2+ release was monitored over a period of 120 s in 1 s increments in a proprietary fluorescence imaging reader. The molar concentration of the test substance which caused 50% inhibition of the MCP-1 effect (IC50) was determined using a 4-parameter logistic function (Hill function).

[2] = target: T2, murine CCR2 (Mus musculus, UniProt P51683); assay: Functional β-arrestin recruiting test with human MCP-1 (B-2a); assay type: cell-based; conditions: U2OS β-arrestin cell line transfected with murine CCR2; agonist human MCP-1 at EC50 (about 3 nM)
T2 construct: host or cells: U2OS β-arrestin cell line
T2 sequence (P51683 whole entry): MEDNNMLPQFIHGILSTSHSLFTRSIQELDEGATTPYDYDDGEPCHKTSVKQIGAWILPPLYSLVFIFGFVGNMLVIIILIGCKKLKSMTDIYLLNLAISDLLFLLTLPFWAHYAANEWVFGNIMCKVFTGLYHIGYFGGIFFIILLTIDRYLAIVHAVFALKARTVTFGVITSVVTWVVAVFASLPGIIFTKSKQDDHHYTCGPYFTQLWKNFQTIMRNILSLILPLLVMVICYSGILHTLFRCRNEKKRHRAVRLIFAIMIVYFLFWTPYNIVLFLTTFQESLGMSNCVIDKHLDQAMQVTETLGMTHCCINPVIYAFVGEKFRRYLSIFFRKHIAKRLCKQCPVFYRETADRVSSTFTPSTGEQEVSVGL
Experimental: The antagonistic action of test substances on CCR2 was determined in a β-arrestin test. The PathHunter β-arrestin GPCR test system (DiscoveRx Corporation, Ltd.) is a cell-based functional method for detecting binding of β-arrestin to an activated receptor. The molecular basis is a β-galactosidase complementation measured by the enzymatic conversion of a chemiluminescent substrate. The test cell used was a U2OS β-arrestin cell line transfected with murine CCR2 (93-0543C3, DiscoveRx Corporation, Ltd.).
as §1
The cells, cultivated in MEM Eagle (supplemented with 10% FCS, 50 U/ml of penicillin, 50 μg/ml of streptomycin, 250 μg/ml of hygromycin and 500 μg/ml of geniticin), were sown at 2000 cells/25 μl in 384 well, μCLEAR/black cell culture plates from Greiner (#781092) and incubated at 37° C. for 24 h. The sowing medium consisted of Opti-MEM (supplemented with 1% FCS, 50 U/ml of penicillin and 50 μg/ml of streptomycin). The cells were pre-incubated for 10 min with 10 μl of the test substances diluted in buffer, and 10 μl of agonist solution [human MCP-1 (PeproTech, #300-04) in Tyrode with 0.05% BSA] were then added. The human MCP-1 was employed at the concentration which corresponds to the EC50 which had been determined in a preliminary test (usually about 3 nM). After 90 min of incubation at 37° C., the solution was removed, and recruitment of β-arrestin to CCR2 was detected with the aid of the PathHunter detection reagent (93-001, DiscoveRx Corporation, Ltd.) according to the instructions of the manufacturer. Luminescence was measured after an incubation time of 60 min using a proprietary luminescence imaging measuring instrument. The molar concentration of the test substance which caused 50% inhibition of the MCP-1 effect (IC50) was determined using a 4-parameter logistic function (Hill function).

IC50 [1] | IC50 [2] | SMILES
6.5 nM | 220 nM | Nc1nc(C(F)(F)F)c(Oc2ccc(F)c(Cl)c2)c(=O)[nH]1 [Example 4, 2-amino-5-(3-chloro-4-fluorophenoxy)-6-(trifluoromethyl)pyrimidin-4(3H)-one]
8.7 nM | 210 nM | Nc1nc(C(F)(F)F)c(Oc2ccc(Cl)c(F)c2)c(=O)[nH]1 [Example 5, 2-amino-5-(4-chloro-3-fluorophenoxy)-6-(trifluoromethyl)pyrimidin-4(3H)-one]
11 nM | 300 nM | Nc1nc(C(F)(F)F)c(Cc2ccc(F)c(Cl)c2)c(=O)[nH]1 [Example 7, 2-amino-5-(3-chloro-4-fluorobenzyl)-6-(trifluoromethyl)pyrimidin-4(3H)-one]
33 nM | 160 nM | Nc1nc(C(F)(F)F)c(Cc2ccc(Cl)c(C(F)(F)F)c2)c(=O)[nH]1 [Example 8, 2-amino-5-[4-chloro-3-(trifluoromethyl)benzyl]-6-(trifluoromethyl)pyrimidin-4(3H)-one]
42 nM | 560 nM | Cc1ccc(Cc2c(C(F)(F)F)nc(N)[nH]c2=O)cc1Cl [Example 11, 2-amino-5-(3-chloro-4-methylbenzyl)-6-(trifluoromethyl)pyrimidin-4(3H)-one]
69 nM | 330 nM | Nc1nc(C(F)(F)F)c(Cc2ccc(Cl)c(F)c2)c(=O)[nH]1 [Example 13, 2-amino-5-(4-chloro-3-fluorobenzyl)-6-(trifluoromethyl)pyrimidin-4(3H)-one]
71 nM | 810 nM | Nc1nc(C(F)(F)F)c(Cc2ccc(C(F)(F)F)c(Cl)c2)c(=O)[nH]1 [Example 14, 2-amino-5-[3-chloro-4-(trifluoromethyl)benzyl]-6-(trifluoromethyl)pyrimidin-4(3H)-one]
33 nM | 370 nM | Cc1nc(C(F)(F)F)c(Cc2ccc(Cl)c(Cl)c2)c(=O)[nH]1 [Example 18, 5-(3,4-Dichlorobenzyl)-2-methyl-6-(trifluoromethyl)pyrimidin-4(3H)-one]
63 nM | 980 nM | CCc1nc(C(F)(F)F)c(Cc2ccc(C(F)(F)F)c(Cl)c2)c(=O)[nH]1 [Example 19, 5-[3-Chloro-4-(trifluoromethyl)benzyl]-2-ethyl-6-(trifluoromethyl)pyrimidin-4(3H)-one]
110 nM | 740 nM | CCCCc1nc(C(F)(F)F)c(Cc2ccc(Cl)c(Cl)c2)c(=O)[nH]1 [Example 22, 2-butyl-5-(3,4-dichlorobenzyl)-6-(trifluoromethyl)pyrimidin-4(3H)-one]
280 nM | 1200 nM | O=c1[nH]c(C2CC2)nc(C(F)(F)F)c1Cc1ccc(Cl)c(F)c1 [Example 23, 5-(4-chloro-3-fluorobenzyl)-2-cyclopropyl-6-(trifluoromethyl)pyrimidin-4(3H)-one]
31 nM | 240 nM | CCc1nc(C(F)(F)F)c(Cc2ccc(Cl)c(C(F)(F)F)c2)c(=O)[nH]1 [Example 26, 5-[4-chloro-3-(trifluoromethyl)benzyl]-2-ethyl-6-(trifluoromethyl)pyrimidin-4(3H)-one]
44 nM | 290 nM | CCc1nc(C(F)(F)F)c(Cc2ccc(F)c(Cl)c2)c(=O)[nH]1 [Example 28, 5-(3-chloro-4-fluorobenzyl)-2-ethyl-6-(trifluoromethyl)pyrimidin-4(3H)-one]

Continued, molecule first:

SMILES | IC50 [1] | IC50 [2]
Nc1nc(C(F)(F)F)c(Oc2ccc(F)c(C(F)(F)F)c2)c(=O)[nH]1 [Example 6, 2-amino-5-[4-fluoro-3-(trifluoromethyl)phenoxy]-6-(trifluoromethyl)pyrimidin-4(3H)-one] | 5.4 nM | 150 nM
Nc1nc(C(F)(F)F)c(Oc2cccc(Cl)c2)c(=O)[nH]1 [Example 9, 2-amino-5-(3-chlorophenoxy)-6-(trifluoromethyl)pyrimidin-4(3H)-one] | 38 nM | 450 nM
Nc1nc(C(F)(F)F)c(Oc2ccc(F)c(F)c2)c(=O)[nH]1 [Example 10, 2-amino-5-(3,4-difluorophenoxy)-6-(trifluoromethyl)pyrimidin-4(3H)-one] | 43 nM | 1300 nM
Nc1nc(C(F)(F)F)c(Oc2cncc(Cl)c2)c(=O)[nH]1 [Example 12, 2-amino-5-[(5-chloropyridin-3-yl)oxy]-6-(trifluoromethyl)pyrimidin-4(3H)-one] | 54 nM | 1000 nM
Nc1nc(C(F)(F)F)c(Sc2ccc(Cl)c(Cl)c2)c(=O)[nH]1 [Example 15, 2-Amino-5-[(3,4-dichlorophenyl)sulphanyl]-6-(trifluoromethyl)pyrimidin-4(3H)-one] | 2.3 nM | 130 nM
Nc1nc(C(F)(F)F)c(Sc2ccc(Cl)cc2)c(=O)[nH]1 [Example 16, 2-amino-5-[(4-chlorophenyl)sulphanyl]-6-(trifluoromethyl)pyrimidin-4(3H)-one] | 31 nM | 640 nM
Nc1nc(C(F)(F)F)c(Sc2ccc(Cl)c(C(F)(F)F)c2)c(=O)[nH]1 [Example 17, 2-amino-5-{[4-chloro-3-(trifluoromethyl)phenyl]sulphanyl}-6-(trifluoromethyl)pyrimidin-4(3H)-one] | 4.1 nM | 160 nM
CCc1nc(C(F)(F)F)c(Cc2cccc(C(F)(F)F)c2)c(=O)[nH]1 [Example 20, 2-ethyl-6-(trifluoromethyl)-5-[3-(trifluoromethyl)benzyl]pyrimidin-4(3H)-one] | 300 nM | 1200 nM
O=c1[nH]c(C2CC2)nc(C(F)(F)F)c1Cc1cccc(Cl)c1 [Example 21, 5-(3-chlorobenzyl)-2-cyclopropyl-6-(trifluoromethyl)pyrimidin-4(3H)-one] | 230 nM | 590 nM
O=c1[nH]c(C2CC2)nc(C(F)(F)F)c1Cc1ccc(C(F)(F)F)c(Cl)c1 [Example 24, 5-[3-chloro-4-(trifluoromethyl)benzyl]-2-cyclopropyl-6-(trifluoromethyl)pyrimidin-4(3H)-one] | 270 nM | 1900 nM
O=c1[nH]c(C2CC2)nc(C(F)(F)F)c1Oc1ccc(Cl)c(Cl)c1 [Example 25, 2-cyclopropyl-5-(3,4-dichlorophenoxy)-6-(trifluoromethyl)pyrimidin-4(3H)-one] | 15 nM | 170 nM
O=c1[nH]c(C2CC2)nc(C(F)(F)F)c1Cc1ccc(Cl)c(C(F)(F)F)c1 [Example 27, 5-[4-chloro-3-(trifluoromethyl)benzyl]-2-cyclopropyl-6-(trifluoromethyl)pyrimidin-4(3H)-one] | 63 nM | 360 nM

From patent US20160221965A1, “DISUBSTITUTED TRIFLUOROMETHYL PYRIMIDINONES AND THEIR USE” (BAYER PHARMA AKTIENGESELLSCHAFT, priority 2013, published 2016)
